This passage reports TGI results from PubChem BioAssay (NCI).

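Cells were grown in 96-well plates and exposed to each compound for 48 hours at five concentrations; endpoints were interpolated linearly between bracketing concentrations, or set to the highest concentration if not reached. Definition used: TGI = concentration required for complete inhibition of growth.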

What all share (assay): NCI tumour cell line growth inhibition, 48 h
The subject of experiment [1] is BT-549 breast.
Experiment [2] relates to UACC-257 melanoma.
In experiment [3] the test system is MDA-MB-231 breast.
The test system of experiment [4] is A549 NSCLC.
Experiment [5] concerns 786-0 renal.
In experiment [6] the test system is K-562 leukemia.
Experiment [7] has as its system TK-10 renal.
Experiment [8] has as its system SNB-19 CNS.
Experiment [9] concerns NCI-H522 lung.
For experiment [10], the system named is SF-268 CNS.
Experiment [11] concerns LOX IMVI melanoma.
For experiment [12], the system named is OVCAR-3 ovarian.
In experiment [13] the test system is SK-OV-3 ovarian.
For experiment [14], the system named is HL-60(TB) leukemia.

Turning to `O=[N+]([O-])c1cc2ccc1OCc1cccc(n1)COc1ccc(cc1[N+](=O)[O-])C=NCCCCCCCCN=C2`, the TGI in experiment [1], in experiment [2], in experiment [3], in [4], in experiment [5] and in [6] was above 100 µM in each case. Further, the TGI in [7], in experiment [8], in experiment [9], in experiment [10], in [11] and in [12] was above 100 µM each time.
For the molecule `C=CC[C@@]12CCC(=O)C=C1CCCC2=O`, the TGI in experiment [2], in experiment [13], in experiment [3], in experiment [4], in experiment [5] and in experiment [6] was above 100 µM throughout. In addition, the TGI in experiment [7], in [8], in experiment [9], in [10], in experiment [11] and in [12] was above 100 µM in each case. This molecule also had a TGI in experiment [14] above 100 µM.
Take `Cn1nc(S(N)(=O)=O)s/c1=N/S(=O)(=O)c1ccc(N)cc1`: the TGI in [1], in experiment [13], in [3], in experiment [4], in [5] and in experiment [7] was above 100 µM each time. The TGI in experiment [8], in experiment [10] and in experiment [12] was above 100 µM in each case.
As to `Cc1ccc2nc(-c3ccc(-c4nc5ccc(C)cc5o4)c(O)c3)oc2c1`, the TGI in experiment [13], in [3], in [4], in [5], in experiment [6] and in experiment [7] was above 100 µM each time. Further, the TGI in experiment [8], in [10], in experiment [11] and in experiment [14] was above 100 µM in each case.
Turning to `CC(=O)OC1CC2C(C)(C)OC(=O)CC(OC(C)=O)[C@]2(C)C2CCC3(C)C(=CCC3c3ccoc3)[C@]12C` (some centres undefined), the TGI in [13] was 54.1 µM; in [4], above 100 µM; in [5], above 100 µM; in experiment [6], above 100 µM; in experiment [7] it was above 100 µM; in [8], above 100 µM. In addition, the TGI in experiment [9] was 81.2 µM; in experiment [10] it was above 100 µM; in experiment [11], above 100 µM; in [12], 60 µM; in experiment [14] it was above 100 µM.
`CC(=O)c1c2c(cc3c1CC1(C3)Cc3cc4c(c(C(C)=O)c3C1)CCCC4)CCCC2`: the TGI in experiment [2], in [13], in experiment [3], in experiment [4], in experiment [5] and in experiment [6] was above 100 µM each time. Moreover, the TGI was above 100 µM in experiment [7]; above 100 µM in experiment [9]; above 100 µM in [11]; above 100 µM in [12]; 40 µM in experiment [14].
In the case of `CNc1cccc2c1C(C)C[C@]1(C)C(=O)Nc3ccccc3[C@H]21` (some centres undefined), the TGI in [2] is 39.3 µM; in [3], 42.9 µM; in [4], 38.6 µM; in experiment [5] it was 32.9 µM; in [6], above 100 µM; in experiment [7], 37.2 µM. Moreover, the TGI in experiment [8] was 54 µM; in experiment [9], 89 µM; in [10] it was above 100 µM; in experiment [11], 33.7 µM; in [12], 34.6 µM; in experiment [14], above 100 µM.
On to `Cn1c(-c2cccs2)cc(-c2ccsc2)c1-c1cccs1`, for which the TGI in experiment [1], in experiment [2], in experiment [13], in [3], in experiment [4] and in experiment [5] was above 100 µM throughout. The TGI in experiment [6], in experiment [7], in experiment [8], in experiment [9], in experiment [10] and in experiment [12] was above 100 µM throughout.
For `O=C1O/C(=C(/Cl)c2c3ccccc3cc3ccccc23)c2ccccc21`, the TGI in experiment [2] was above 100 µM; in experiment [13], above 100 µM; in experiment [3], 40.3 µM; in experiment [4], above 100 µM; in experiment [5], 40.5 µM; in experiment [6], above 100 µM. Besides, the TGI was above 100 µM in [7]; above 100 µM in [8]; above 100 µM in experiment [9]; above 100 µM in [10]; 8.04 µM in [11]; 60.9 µM in experiment [12]. Further, the TGI in experiment [14] turned out to be 22.6 µM.
As for `O=c1[nH]cc(COCC(O)CO)c(=O)[nH]1` (centres undefined), the TGI in experiment [2], in [13], in [4], in [5], in [6] and in [7] was above 100 µM throughout. Further, the TGI in [8], in [9], in [10], in [11], in [12] and in [14] was above 100 µM each time.
Take `Brc1ccc(N=Nc2ccc3ccccc3n2)cc1`: the TGI in experiment [1] is 60.5 µM; in [2], above 100 µM; in experiment [13], 49.6 µM; in experiment [4] it was above 100 µM; in experiment [5] it was 27.1 µM; in experiment [7] it was 56.6 µM. Besides, the TGI was 37.1 µM in experiment [8], 21.4 µM in [9], 94 µM in experiment [10] and above 100 µM in experiment [14].
As for `Cc1cc(C)nc(NS(=O)(=O)c2ccc(Nc3nnc(/C=C/c4c(O)ccc5ccccc45)c(=O)n3N)cc2)n1`, the TGI was 62.5 µM in experiment [1]; above 100 µM in experiment [13]; above 100 µM in experiment [4]; 62.9 µM in experiment [5]; above 100 µM in experiment [6]; above 100 µM in experiment [8]. Moreover, the TGI was above 100 µM in experiment [10], 56 µM in experiment [12] and 66.8 µM in experiment [14].
